Measured values from PubChem BioAssay AID1033 (Sanford-Burnham Center for Chemical Genomics, 2008).
Active and inactive are the calls of the source. The rule behind the calls is not given here.

Biological target: Chaperone protein DnaK (Escherichia coli (strain K12)) (UniProt P0A6Y8)
Test: binders of DnaK substrate-binding domain, biophysical, NMR, chaperone (AID 1033)
Conditions: Purified DnaK SBD, NMR ligand binding

Chain of Chaperone protein DnaK (Escherichia coli (strain K12)) (P0A6Y8 whole entry, looked up, the tested form may be a part): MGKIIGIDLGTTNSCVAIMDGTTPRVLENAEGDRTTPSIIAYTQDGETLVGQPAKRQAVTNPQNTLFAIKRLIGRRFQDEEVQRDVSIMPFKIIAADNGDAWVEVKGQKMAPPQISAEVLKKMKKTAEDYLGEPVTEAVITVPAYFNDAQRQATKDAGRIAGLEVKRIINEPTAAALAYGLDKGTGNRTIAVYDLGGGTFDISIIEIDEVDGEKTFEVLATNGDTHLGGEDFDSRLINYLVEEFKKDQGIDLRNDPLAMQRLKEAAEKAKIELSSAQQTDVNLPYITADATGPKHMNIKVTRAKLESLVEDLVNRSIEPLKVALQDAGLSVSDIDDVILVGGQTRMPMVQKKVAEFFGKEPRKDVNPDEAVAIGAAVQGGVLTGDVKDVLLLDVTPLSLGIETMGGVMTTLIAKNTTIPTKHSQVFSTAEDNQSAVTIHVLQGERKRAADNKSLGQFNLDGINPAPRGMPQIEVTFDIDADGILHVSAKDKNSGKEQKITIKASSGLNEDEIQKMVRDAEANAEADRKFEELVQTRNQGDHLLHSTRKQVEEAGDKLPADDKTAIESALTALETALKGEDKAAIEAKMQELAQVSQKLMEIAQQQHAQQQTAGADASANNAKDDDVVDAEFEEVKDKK

SMILES	Kd
CC(C)c1ccc2c(c1)CCC1[C@](C)(CN)CCC[C@]21C (stereo partly specified)	> 4 mM (inactive)
O=C(O)Cn1c(C(F)(F)F)nc2ccccc21	> 4 mM (inactive)
Cc1ccc(N2C(=O)C3C4C=CC(O4)C3C2=O)cc1 (stereo unspecified)	> 4 mM (inactive)
CCCN1CCC(N2CCC(O)CC2)CC1	> 4 mM (inactive)
O=C(O)c1ccc2nsnc2c1	> 4 mM (inactive)
Cc1cc(N)on1	> 4 mM (inactive)
CC(C)c1ccccc1NC(=O)c1cnccn1	> 4 mM (inactive)
Cc1cc(SCC(=O)Nc2nccs2)nc(=O)[nH]1	> 4 mM (inactive)
Cc1cc(CN2C(=O)c3ccccc3C2=O)on1	> 4 mM (inactive)
OCc1c[nH]c2ccccc12	> 4 mM (inactive)
CSc1ccccc1NC(=O)c1ccncc1	> 4 mM (inactive)
COc1nc(-c2ccccc2)ccc1-c1noc(C)n1	> 4 mM (inactive)
CN1CCC(NC(=O)c2c(F)cccc2Cl)CC1	> 4 mM (inactive)
CNC(=S)N1CCN=C1Nc1nc(C)cc(C)n1	> 4 mM (inactive)
COc1cccc(-c2csc(NC(C)=O)n2)c1	> 4 mM (inactive)
COc1cc2c(cc1OC)[C@@H]1C(=O)c3ccc(O)c(CC=C(C)C)c3O[C@@H]1CO2	> 4 mM (inactive)
Cc1nc(-c2ccccc2)ncc1CO	> 4 mM (inactive)
CC(=O)Oc1ccc(O)cc1	> 4 mM (inactive)
Cc1cc(C(=O)N2CCN(c3ncccn3)CC2)cs1	> 4 mM (inactive)
O=C(c1ccc(N2CCNCC2)cc1)c1cccnc1	> 4 mM (inactive)
CNc1nc(C)nc(-n2nc(C)cc2C)n1	> 4 mM (inactive)
Fc1ccc(F)c(CN2CCN(c3ncccn3)CC2)c1	> 4 mM (inactive)
CC(C)=CC1C(C(=O)O)C1(C)C (stereo unspecified)	> 4 mM (inactive)
CC(=O)c1cc(-c2nc3ccccc3n2C)n(C)c1	> 4 mM (inactive)

SMILES	Kd
CC(=O)Nc1ccn(Cc2c(F)cccc2Cl)n1	> 4 mM (inactive)
Cc1nc2nc(Cc3ccccc3)nn2c(C)c1Cl	> 4 mM (inactive)
O=C(O)c1cc(F)cc2c1OCOC2	> 4 mM (inactive)
COC(=O)[C@]1(C)CC[C@]2(C)CC[C@]3(C)C4=CC=C5C(=CC(=O)C(O)=C5C)[C@]4(C)CC[C@@]3(C)[C@@H]2C1	> 4 mM (inactive)
Cc1cc(-c2ccccc2)nc2cc(C(N)=O)nn12	> 4 mM (inactive)
NS(=O)(=O)c1ccc(N2CCCC2=O)cc1	> 4 mM (inactive)
O=C(NN1C(=O)c2ccccc2C1=O)c1cccs1	> 4 mM (inactive)
C=C[C@H]1CN2CC[C@H]1C[C@@H]2[C@H](O)c1ccnc2ccccc12	> 4 mM (inactive)
COc1c2c(cc3cc[n+](C)cc13)OCO2	> 4 mM (inactive)
COC(=O)NCc1cc2cc(Cl)ccc2[nH]1	> 4 mM (inactive)
CCN1CCC(NC2CCCCNC2=O)CC1 (stereo unspecified)	> 4 mM (inactive)
Cc1ccc(C)n1-c1ccc(C(=O)N2CCOCC2)cc1	> 4 mM (inactive)
OC1CCN(C(=S)NC2CC2)CC1	> 4 mM (inactive)
C=C(C)[C@H]1CC=C(C(=O)O)CC1	> 4 mM (inactive)
c1nnc2c3c4c(sc3ncn12)CCCC4	> 4 mM (inactive)
NC(=O)CN=Cc1c(O)[nH]c2ccccc12	> 4 mM (inactive)
Cn1cccc1C(=O)NS(=O)(=O)c1ccccc1Cl	> 4 mM (inactive)
CSc1nc(C)c(Oc2ccccc2)c(=O)n1C	> 4 mM (inactive)
CN(c1ccccc1C(=O)N1CCCC1)S(C)(=O)=O	> 4 mM (inactive)
CC(=O)c1ccc(N2C(=O)C(C(C)C)NC2=S)cc1 (stereo unspecified)	> 4 mM (inactive)
Cc1cc(C)c2nncn2n1	> 4 mM (inactive)
C=CCNC(=O)c1ccc(Cl)cc1Cl	> 4 mM (inactive)
NC(=O)c1ccc(Cl)c(N2C(=O)CCC2=O)c1	> 4 mM (inactive)
C[C@H]1CCCC(=O)CCC/C=C/c2cc(O)cc(O)c2C(=O)O1	> 4 mM (inactive)

SMILES	Kd
CC1=CC(=O)NC2C=CC=CC12 (stereo unspecified)	> 4 mM (inactive)
O=C(c1ccccc1)N1CCN(c2ccccc2F)CC1	> 4 mM (inactive)
COc1cccc(=O)c2c(C)n(C)c(C)c12	> 4 mM (inactive)
NC(=O)c1cccc2c(=O)oc3ccccc3c12	> 4 mM (inactive)
C=C1C(=O)OC2CC1C(OC(C)=O)C/C(C)=C/CC/C(C)=C/CC[C@]2(C)O (stereo partly specified)	> 4 mM (inactive)
OCC1CCN(c2ncccn2)CC1	> 4 mM (inactive)
O=c1[nH]c(=O)c2[nH]cnc2[nH]1	> 4 mM (inactive)
O=C(Nc1ccc2ccccc2c1)c1cnccn1	> 4 mM (inactive)
COc1cc2c(cc1O)CC1c3c(cc(O)c(OC)c3-2)CCN1C (stereo unspecified)	> 4 mM (inactive)
Cc1nccc2c1[nH]c1ccccc12	> 4 mM (inactive)
O=C(NC1CCS(=O)(=O)C1)C1CCCCC1 (stereo unspecified)	> 4 mM (inactive)
CCCc1nc2ccccc2c2nc(N)nn12	> 4 mM (inactive)
Cc1n[nH]c(C)c1-c1ccccc1C(=O)O	> 4 mM (inactive)
O=C(Nc1cccc2cccnc12)c1cccnc1	> 4 mM (inactive)
Nc1nnc(SCc2ccc3c(c2)OCO3)s1	> 4 mM (inactive)
Cc1[nH]c(=O)[nH]c(=O)c1N1CCOCC1	> 4 mM (inactive)
N=c1c2c3c(sc2ncn1N)CCCC3	> 4 mM (inactive)
C[C@H]1C(=O)CCC2[C@]3(C)CC[C@@]4(C)C5CC(C)(C)CC[C@]5(C)CC[C@]4(C)C3CC[C@@]21C (stereo partly specified)	> 4 mM (inactive)
C[C@@H]1CC[C@@]2(OC1)OC1C(O)C3C4CC[C@H]5C[C@H](O[C@@H]6O[C@H](CO)[C@H](O[C@@H]7O[C@H](CO)[C@@H](O)[C@H](O[C@@H]8OC[C@@H](O)[C@H](O)[C@H]8O)[C@H]7O[C@@H]7O[C@H](CO)[C@H](O)[C@H](O[C@@H]8O[C@H](CO)[C@@H](O)[C@H](O)[C@H]8O)[C@H]7O)[C@H](O)[C@H]6O)[C@H](O)C[C@]5(C)C4CC[C@]3(C)C1[C@@H]2C (stereo partly specified)	> 4 mM (inactive)
Cc1nc2ccccc2c(=O)n1CCCO	> 4 mM (inactive)
C[C@H]1[C@H](C)CC[C@]2(C(=O)O)CC[C@]3(C)C(=CCC4[C@@]5(C)C[C@@H](O)[C@H](O)[C@@](C)(CO)C5[C@H](O)C[C@]43C)[C@H]12 (stereo partly specified)	> 4 mM (inactive)
O=C1CSC(=Nc2ccccc2)N1	> 4 mM (inactive)
OC[C@@H]1CCCN2CCCC[C@H]12	> 4 mM (inactive)
Cc1cc(=O)n(C(N)=S)[nH]1	> 4 mM (inactive)

SMILES	Kd
COc1cccc(O)c1O	> 4 mM (inactive)
Cc1ccc(CN2CCNC(=O)C2CC(=O)O)o1 (stereo unspecified)	> 4 mM (inactive)
O=C(Nc1cnccn1)c1cccc(C(F)(F)F)c1	> 4 mM (inactive)
S=C(CN1CCCC1=S)N1CCOCC1	> 4 mM (inactive)
NC(=O)CC(=O)NC12CC3CC(CC(C3)C1)C2	> 4 mM (inactive)
COc1ccc(C[C@H]2NC[C@H](O)[C@H]2OC(C)=O)cc1	> 4 mM (inactive)
COC(=O)c1cncn1C	> 4 mM (inactive)
Nc1cccc(S(=O)(=O)N2CCCC2)c1	> 4 mM (inactive)
Cc1cccn2cc(CNc3ccccc3)nc12	> 4 mM (inactive)
Cc1cc(N2CCN(C)CC2)ncn1	> 4 mM (inactive)
S=C(NC1CC1)NN1CCOCC1	> 4 mM (inactive)
O=c1c(O)c(-c2ccc(O)cc2O)oc2cc(O)cc(O)c12	> 4 mM (inactive)
C=CCSc1[nH]c(=O)cc(C)c1C(N)=O	> 4 mM (inactive)
Cc1cc(C)c(-c2cc(C(F)(F)F)no2)c(=O)[nH]1	> 4 mM (inactive)
CCN1C(=O)c2cccc3c(S(N)(=O)=O)ccc1c23	> 4 mM (inactive)
NS(=O)(=O)c1ccc(F)cc1	> 4 mM (inactive)
C[C@@H]1[C@H]2[C@H](O[C@@H]3O[C@H](CO)[C@@H](O)[C@H](O)[C@H]3O)OC=C(C(=O)O)[C@H]2C[C@@H]1O	> 4 mM (inactive)
CN1C(=O)c2ccc(C(=O)NCc3ccccc3)cc2C1=O	> 4 mM (inactive)
O=C(OCc1c(F)cccc1Cl)c1cnccn1	> 4 mM (inactive)
O=C(Nc1cccnc1)c1cnn2cccnc12	> 4 mM (inactive)
OC(c1ccccc1)c1ccccn1 (stereo unspecified)	> 4 mM (inactive)
CN1CCC(N(C)C2CCN(C)CC2)CC1	> 4 mM (inactive)
Cc1nnc(SCC(=O)NC2CCCC2)[nH]c1=O	> 4 mM (inactive)
Cc1ccccc1NC(=O)CC1NCCNC1=O (stereo unspecified)	> 4 mM (inactive)

SMILES	Kd
COc1cc(OC)c2c(c1Cl)OC1(C2=O)C(O)=CC(=O)CC1C (stereo unspecified)	> 4 mM (inactive)
NCc1ccccc1N1CCCCC1	> 4 mM (inactive)
Nc1nnc(-c2ccncc2)s1	> 4 mM (inactive)
COc1ccc2c(c1)c1n[nH]c(=S)nc1n2C	> 4 mM (inactive)
Cc1cc(C(F)(F)F)n2nc(C(=O)O)c(Cl)c2n1	> 4 mM (inactive)
NC(=O)CSc1nc2[nH]ncc2c(=O)[nH]1	> 4 mM (inactive)
COc1ccccc1-c1cn[nH]c(=S)n1	> 4 mM (inactive)
CN(C)S(=O)(=O)c1ccc(C(=O)NN)cc1	> 4 mM (inactive)
COc1ccc2c(c1)OCC(Cc1ccc(OC)c(OC(C)=O)c1)C2=O (stereo unspecified)	> 4 mM (inactive)
Cc1cc(=O)n2[nH]c(C)cc2n1	> 4 mM (inactive)
O=C(Nc1ccc(O)cc1)N1CCOCC1	> 4 mM (inactive)
O=C(CSc1ccccc1)N1CCC2(CC1)OCCO2	> 4 mM (inactive)
Cn1cccc1C=C1C(=O)NC(=S)NC1=O	> 4 mM (inactive)
C=CC(C1=CC(=O)C=CC1=O)c1ccccc1 (stereo unspecified)	> 4 mM (inactive)
O=C(Cn1cncn1)c1ccc(F)c(F)c1	> 4 mM (inactive)
O=P(c1ccccc1)(c1ccccc1)C1CCOCC1	> 4 mM (inactive)
COc1cc(/C=C/C(=O)O)ccc1O	> 4 mM (inactive)
NS(=O)(=O)c1ccc(N=Cc2cccs2)cc1	> 4 mM (inactive)
O=c1[nH]cnc2c1nnn2Cc1ccccc1	> 4 mM (inactive)
NC(=O)Cn1cnc2c(cnn2-c2ccccc2)c1=O	> 4 mM (inactive)
